Measured values: PMC10313705, “Structure and transport mechanism of the human calcium pump SPCA1” (Cell Research, 2023)

How the values were obtained:
hSPCA1 (hSPCA1a) [1] = target: T1, hSPCA1 (hSPCA1a) (Homo sapiens, UniProt P98194); experiment: cryo-EM structure ([…] Å); type: binding; set-up: gene ATP2C1; full-length (Met1-Val919), C-terminal 2x Strep tag, expressed in HEK293F cells, purified in DDM/CHS then digitonin; residues 1-15 and 906-919 not modelled; conditions: CaE1P-ADP state; 5 mM ADP, 5 mM NaF, 1 mM AlCl3; Ca2+, Mg2+, pH 8.0
T1 sequence (P98194 1-919): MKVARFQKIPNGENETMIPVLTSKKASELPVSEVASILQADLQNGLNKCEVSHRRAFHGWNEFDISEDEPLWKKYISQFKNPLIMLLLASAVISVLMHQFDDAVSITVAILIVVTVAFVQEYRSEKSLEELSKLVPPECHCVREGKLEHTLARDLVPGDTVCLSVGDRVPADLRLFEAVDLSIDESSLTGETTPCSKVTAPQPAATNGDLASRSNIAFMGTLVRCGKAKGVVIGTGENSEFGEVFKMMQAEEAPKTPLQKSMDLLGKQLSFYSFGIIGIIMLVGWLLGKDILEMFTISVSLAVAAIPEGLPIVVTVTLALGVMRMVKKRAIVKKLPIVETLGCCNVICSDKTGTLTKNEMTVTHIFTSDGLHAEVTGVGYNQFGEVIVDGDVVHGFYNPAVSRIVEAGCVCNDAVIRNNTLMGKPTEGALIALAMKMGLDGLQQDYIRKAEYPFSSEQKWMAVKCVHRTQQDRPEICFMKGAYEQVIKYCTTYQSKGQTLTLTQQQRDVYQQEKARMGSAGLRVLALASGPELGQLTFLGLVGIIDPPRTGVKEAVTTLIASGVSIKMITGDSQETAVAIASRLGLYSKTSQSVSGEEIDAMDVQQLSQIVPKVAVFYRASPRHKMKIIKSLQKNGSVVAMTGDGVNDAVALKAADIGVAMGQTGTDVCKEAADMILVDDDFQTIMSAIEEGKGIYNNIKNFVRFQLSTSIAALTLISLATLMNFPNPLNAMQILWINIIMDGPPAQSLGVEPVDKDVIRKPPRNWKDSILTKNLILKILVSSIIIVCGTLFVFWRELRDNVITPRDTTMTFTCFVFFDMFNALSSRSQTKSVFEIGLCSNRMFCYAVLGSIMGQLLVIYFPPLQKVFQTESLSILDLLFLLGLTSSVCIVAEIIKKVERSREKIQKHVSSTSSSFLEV

hSPCA1 (hSPCA1a) [2] = target: T1, hSPCA1 (hSPCA1a); set-up: gene ATP2C1; conditions: ATP hydrolysis by purified protein in digitonin
hSPCA1 (hSPCA1a) [3] = target: T1, hSPCA1 (hSPCA1a); experiment: cryo-EM structure; type: binding; set-up: gene ATP2C1; full-length (Met1-Val919), C-terminal 2x Strep tag, expressed in HEK293F cells, purified in DDM/CHS then digitonin; residues 1-15 and 906-919 not modelled; conditions: phosphate transition-state analogue at Asp350; E2~P state; 10 mM NaF, 2 mM AlCl3, Mg2+, no added Ca2+, pH 8.0
hSPCA1 (hSPCA1a) [4] = target: T1, hSPCA1 (hSPCA1a); set-up: gene ATP2C1; conditions: phosphate analogue at Asp350; 10 mM NaF, 2 mM BeSO4, 1 mM CaCl2, Mg2+, pH 8.0; CaE2P (8IWS) and early E2P (8IWT) states

Structure (SMILES): Nc1ncnc2c1ncn2[C@@H]1O[C@H](COP(=O)(O)OP(=O)(O)O)[C@@H](O)[C@H]1O [ADP]
- cryo-EM structure (3.71 Å) (hSPCA1 (hSPCA1a) [1]): the ADP molecule (dark gray) in the CaE1P-ADP state

Structure (SMILES): Nc1ncnc2c1ncn2[C@@H]1O[C@H](COP(=O)(O)OP(=O)(O)OP(=O)(O)O)[C@@H](O)[C@H]1O [ATP]
- ATPase assay, Pi release kit (absorbance at 636 nm) (hSPCA1 (hSPCA1a) [2]): an ATPase activity assay demonstrated that it has ATP hydrolysis activity

Structure (SMILES): [F][Al-]([F])([F])[F] [AlF4^–]
- cryo-EM structure (hSPCA1 (hSPCA1a) [3]): The EM densities derived from AlF4^– were clearly visible near Asp350

Structure (SMILES): [F][Be-]([F])[F] [BeF3^–]
- cryo-EM structures (3.42 Å CaE2P; 3.25 Å early E2P) (hSPCA1 (hSPCA1a) [4]): allowed us to trace the BeF3^– densities which were clearly visible near Asp350
